{
  "source": "patent US9040715B2",
  "about": "(priority 2008, dated 2015)",
  "format_in_all_cases": "cell-based",
  "key": {"[1]": {"system": "HCV replicon cell line AVA5 (sub-genomic CONI, genotype 1b)", "assay": "Anti-HCV activity, 3-day HCV replicon assay, blot hybridization of intracellular HCV RNA", "conditions": "for EC50: 2-fold depression of intracellular HCV RNA", "description": "(§1) The antiviral activity of Compounds I-8 and I-9 was assessed in a 3-day assay using the stably-expressing HCV replicon cell lines, AVA5 (sub-genomic CONI, genotype 1b) and APC103 (genomic H77, genotype la) maintained as sub -confluent cultures on 96-well plates. Antiviral activity was determined by blot hybridization analysis of intracellular HCV RNA (normalized to the level of cellular B-actin RNA in each culture sample). A 3-fold suppression of HCV RNA and less than 2-fold suppression of cellular B-actin RNA was used as the cutoff. Cytotoxicity was assessed by neutral red dye uptake after 3 days of treatment. Dose response inhibition of HCV was also determined (FIG. 6). The nucleoside analogue 2′C-methyl cytidine (2′CmeC) was used as an assay activity control. EC50, EC90 and CC50 values (+/− standard deviations [S.D.]) were calculated by linear regression analysis. EC50 and EC90 are drug concentrations at which a 2-fold, or a 10-fold depression of intracellular HBV DNA or HCV RNA (relative to the average levels in untreated cultures), respectively, was observed. CC50 is the drug concentration at which a 2-fold lower level of neutral red dye uptake (relative to the average levels in untreated cultures) was observed."}, "[2]": {"system": "HCV replicon cell line APC103 (genomic H77, genotype la)", "assay": "Anti-HCV activity, 3-day HCV replicon assay, blot hybridization of intracellular HCV RNA", "conditions": "for EC50: read-out: EC50 (μM ± SD); for EC90: 10-fold depression of intracellular HCV RNA", "description": "as §1"}, "HCV replication": {"system": "HCV replication", "assay": "Effect of combination treatments on HCV replication (CalcuSyn analysis)", "parameters": "key to Type of Interaction: S, synergistic", "conditions": "for EC50 / EC90: Hepatitis C virus; for EC50: read-out: Compound I-9 EC50; for EC90: read-out: Compound I-9 EC90", "excerpt": "Compound I-9 was utilized in combination treatments with interferon (with and without RBV), and several representative STAT—C agents including 2′CmeC (nucleoside analogue), HCV-796 (non-nucleoside polymerase inhibitor), and VX-950 (protease inhibitor) (Table 13). For these studies, the compounds were mixed at equipotent (not necessarily equimolar) concentrations based on the monotherapy EC90 values. For example, 2′CmeC and Compound I-9 were mixed at equal molar concentrations, while 10-fold more Compound I-9 was used relative to VX-950 in that combination. The mixtures were then serially diluted for dose response analysis keeping the molar ratios constant. Corresponding monotherapies were also included. # Ribavirin (RBV) was held at a constant concentration of 30 uM for all serial dilutions of this combination. The overall type of interaction as determined by analysis with CalcuSyn (Biosoft, Inc.; Cambridge, UK) for each combination is indicated next to the corresponding EC50 and EC90 values in Table 13.\nAnalysis of combination therapies was performed using Calcusyn™ software (Biosoft, Inc.; Cambridge, UK). Two types of evaluations were performed (see FIG. 7). The top panels of FIG. 5 present CI-Fa (Combination Index—Fraction (of virus) affected) plots). For these plots, a combination index [CI] greater than 1.0 indicates antagonism and a CI less than 1.0 indicates synergism. Evaluations of synergy, additivity (summation), or antagonism at different levels of virus inhibition (e.g. […] (Fa=0.5) to 99% (Fa=0.99)) were performed and are provided by the plotted lines and points. Dotted lines denoting 1.96 standard deviations for significance evaluations can be added but are not included in this example for clarity of presentation. The bottom panels present conservative isobolograms. […] Three lines radiating out from the axes denote the expected (e.g., additive) EDC50, EDC75, and EDC90 values for drug combinations as calculated from the monotherapies. ED50, ED75, and ED90 values for the combinations that plot to the left (e.g., less than) of the corresponding lines indicate synergy, and values plotting to the right (e.g., greater than) of the corresponding lines indicate antagonism."}, "[3]": {"assay": "Cytotoxicity by neutral red dye uptake after 3 days of treatment", "conditions": "human", "description": "as §1"}, "APC103 cells": {"system": "APC103 cells", "assay": "Cytotoxicity by neutral red dye uptake after 3 days of treatment", "description": "as §1"}, "AVA5 cells": {"system": "AVA5 cells", "assay": "Cytotoxicity by neutral red dye uptake after 3 days of treatment", "description": "as §1"}, "[4]": {"conditions": "Hepatitis C virus, Ava5, read-out: EC90 (μM ± SD)"}, "[5]": {"conditions": "combination with 2′CmeC, molar ratio 1:1"}, "[6]": {"conditions": "combination with HCV-796, molar ratio 1:100"}, "[7]": {"conditions": "combination with IFN + 30 μM RBV (RBV held constant), molar ratio 1:1"}, "[8]": {"conditions": "combination with IFN, molar ratio 1:1"}, "[9]": {"conditions": "combination with VX-950, molar ratio 1:10"}},
  "note": "Where two headings read alike, the source gives them in different places.",
  "data": [
    {"molecule": "CC(C(=O)Nc1cccc(Oc2ccccc2)c1)n1sc2ccccc2c1=O", "note": "(stereo not drawn) [Compound I-9]", "values": [
      {"measurement": "SI (CC50/EC50)", "setting": "[1]; AVA5", "value": ">42"},
      {"measurement": "EC90", "setting": "[1]; [4]", "value": "2.8 ± 0.3", "unit": "µM"},
      {"measurement": "EC50", "setting": "[1]; Hepatitis C virus, AVA5", "value": "2.4 ± 0.2", "unit": "µM"},
      {"measurement": "SI (CC50/EC50)", "setting": "[2]; APC103", "value": ">35"},
      {"measurement": "EC50", "setting": "[2]; Hepatitis C virus", "value": "8.5 ± 0.6", "unit": "µM"},
      {"measurement": "EC90", "setting": "[2]; Hepatitis C virus, APC103", "value": "9 ± 1", "unit": "µM"},
      {"measurement": "EC50", "setting": "HCV replication; None (monotherapy)", "value": "2600 ± 200", "unit": "nM"},
      {"measurement": "EC90", "setting": "HCV replication; None (monotherapy)", "value": "9100 ± 500", "unit": "nM"},
      {"measurement": "EC50", "setting": "HCV replication; [5]", "value": "700 ± 100", "unit": "nM"},
      {"measurement": "EC90", "setting": "HCV replication; [5]", "value": "1800 ± 200", "unit": "nM"},
      {"measurement": "EC50", "setting": "HCV replication; [6]", "value": "100 ± 10", "unit": "nM"},
      {"measurement": "EC90", "setting": "HCV replication; [6]", "value": "400 ± 30", "unit": "nM"},
      {"measurement": "EC50", "setting": "HCV replication; [7]", "value": "200 ± 30", "unit": "nM"},
      {"measurement": "EC90", "setting": "HCV replication; [7]", "value": "700 ± 100", "unit": "nM"},
      {"measurement": "EC50", "setting": "HCV replication; [8]", "value": "300 ± 30", "unit": "nM"},
      {"measurement": "EC90", "setting": "HCV replication; [8]", "value": "1000 ± 100", "unit": "nM"},
      {"measurement": "EC50", "setting": "HCV replication; [9]", "value": "300 ± 20", "unit": "nM"},
      {"measurement": "EC90", "setting": "HCV replication; [9]", "value": "700 ± 100", "unit": "nM"},
      {"measurement": "Type of Interaction", "setting": "HCV replication; [5]", "value": "S"},
      {"measurement": "Type of Interaction", "setting": "HCV replication; [6]", "value": "S"},
      {"measurement": "Type of Interaction", "setting": "HCV replication; [7]", "value": "S"},
      {"measurement": "Type of Interaction", "setting": "HCV replication; [8]", "value": "S"},
      {"measurement": "Type of Interaction", "setting": "HCV replication; [9]", "value": "S"},
      {"measurement": "Interaction in combination treatments", "setting": "HCV replication; with interferon, ribavirin, and the STAT-C agents", "value": "interacted favorably"},
      {"measurement": "CC50 at 3 days", "setting": "[3]; APC103", "value": "> 100", "unit": "µM"},
      {"measurement": "CC50 at 3 days", "setting": "[3]; AVA5", "value": "> 100", "unit": "µM"}
    ]},
    {"molecule": "O=C(Cn1sc2ccccc2c1=O)Nc1cccc(Oc2ccccc2)c1", "note": "[Compound I-8]", "values": [
      {"measurement": "SI (CC50/EC50)", "setting": "[1]; AVA5", "value": ">17"},
      {"measurement": "EC90", "setting": "[1]; [4]", "value": "5.6 ± 0.7", "unit": "µM"},
      {"measurement": "EC50", "setting": "[1]; Hepatitis C virus, AVA5", "value": "5.8 ± 3.7", "unit": "µM"},
      {"measurement": "SI (CC50/EC50)", "setting": "[2]; APC103", "value": ">18"},
      {"measurement": "EC50", "setting": "[2]; Hepatitis C virus", "value": "19 ± 2.3", "unit": "µM"},
      {"measurement": "EC90", "setting": "[2]; Hepatitis C virus, APC103", "value": "23 ± 1.8", "unit": "µM"},
      {"measurement": "CC50 at 3 days", "setting": "[3]; APC103", "value": "> 100", "unit": "µM"},
      {"measurement": "CC50 at 3 days", "setting": "[3]; AVA5", "value": "> 100", "unit": "µM"}
    ]},
    {"molecule": "C[C@@]1(O)[C@H](O)[C@@H](CO)O[C@H]1n1ccc(N)nc1=O", "note": "[2′CmeC, 2′C-methyl cytidine, reference compound]", "values": [
      {"measurement": "SI (CC50/EC50)", "setting": "[1]; AVA5", "value": ">150"},
      {"measurement": "EC50", "setting": "[1]; AVA5", "value": "2 ± 0.1", "unit": "µM"},
      {"measurement": "EC90", "setting": "[1]; AVA5, 10-fold depression of intracellular HCV RNA, read-out: EC90 (μM ± SD)", "value": "2.2 ± 0.2", "unit": "µM"},
      {"measurement": "SI (CC50/EC50)", "setting": "[2]; APC103", "value": ">136"},
      {"measurement": "EC50", "setting": "[2]; APC103, 2-fold depression of intracellular HCV RNA", "value": "5.8 ± 0.4", "unit": "µM"},
      {"measurement": "EC90", "setting": "[2]; APC103", "value": "6.4 ± 0.6", "unit": "µM"},
      {"measurement": "CC50", "setting": "APC103 cells", "value": "> 300", "unit": "µM"},
      {"measurement": "CC50", "setting": "AVA5 cells", "value": "> 300", "unit": "µM"}
    ]}
  ]
}
